Test results reported in PubChem BioAssay (NCI).
“And” between values parts separate entries of the source, which are not always exact repeats. Equal entries are not always repeated.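 Following 48 hours of exposure in 96-well plates, responses at five concentrations were used to interpolate endpoints linearly. The concentration for 50% growth inhibition is given as GI50. At the TGI there is no net growth.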

How the values were obtained:
Test in all cases: NCI-60 cell line screen, 48 h
[1] = system: LOX IMVI melanoma
[2] = system: SK-MEL-5 melanoma
[3] = system: SR leukemia
[4] = system: KM12 colon
[5] = system: SK-MEL-2 melanoma
[6] = system: CCRF-CEM leukemia
[7] = system: A498 renal
[8] = system: K-562 leukemia
[9] = system: UACC-257 melanoma
[10] = system: OVCAR-4 ovarian
[11] = system: HL-60(TB) leukemia

SMILES | TGI [1] | TGI [2] | TGI [3] | TGI [4] | TGI [5] | TGI [6] | TGI [7] | TGI [8] | TGI [9] | TGI [10] | TGI [11] | GI50 [1] [µM] | GI50 [2] [µM] | GI50 [4] | GI50 [5] | GI50 [8] | GI50 [9] | GI50 [11] | GI50 [3]
COc1ccc2cc(CN3CCC(C4CCNCC4)CC3)ccc2c1 | 2.94 µM | 3.1 µM | 5.16 µM | 5.25 µM | 3.81 µM | 12.7 µM | 14.7 µM | 3.22 µM | 3.47 µM | 31.3 µM | 3.38 µM |  |  |  |  |  |  |  | 
O=C1CC(c2cccc(Br)c2)n2cccc21 (stereo unspecified) | > 100 µM |  | > 100 µM | > 100 µM | 95.3 µM | > 100 µM | > 100 µM | > 100 µM | > 100 µM | > 100 µM | 87.3 µM |  |  |  |  |  |  |  | 
CC1=C(C(=O)c2ccccc2)C23C(=O)N(c4ccccc4)C(=O)C2=C(O)C=CC3(O)N1 (stereo unspecified) | 61.1 µM | 41.9 µM | 46.3 µM | 53.5 µM | 57.3 µM | > 100 µM | > 100 µM | 75.1 µM | > 100 µM | > 100 µM | 50.7 µM |  |  |  |  |  |  |  | 
CCOP(=O)(OCC)C(C#N)Cc1ccco1 (stereo unspecified) | > 10 µM | > 10 µM | > 10 µM | > 10 µM | > 10 µM | > 10 µM | > 10 µM | > 10 µM | > 10 µM | > 10 µM | > 10 µM |  |  |  |  |  |  |  | 
CN(/N=C/c1ccnc2ccccc12)c1ccc(Cl)cc1[N+](=O)[O-] |  | > 100 µM | > 100 µM | > 100 µM | > 100 µM | > 100 µM | > 100 µM | > 100 µM | > 100 µM | 69.1 µM | > 100 µM |  |  |  |  |  |  |  | 
CC1=Nc2sc3c(c2C2=NCCN12)CCCC3 | 36.8 µM | 77.4 µM | 65.2 µM | > 100 µM | 84.5 µM |  | 90.6 µM | > 100 µM | 48.5 µM | > 100 µM | 61 µM |  |  |  |  |  |  |  | 
C=C1C(=O)O[C@H]2[C@@H](O)[C@H](C)CCC[C@]3(C)O[C@H]3CC[C@@]3(C)O[C@@H]3C[C@@H]12 |  | 10.5 µM | 5.99 µM | 15.3 µM | 16.6 µM | 5.22 µM | 14.4 µM | 3.25 µM |  | 9.85 µM | 2.03 µM |  |  |  |  |  |  |  | 
CCCCCCCCCCC1OC([C@@H](O)CC[C@H](O)C2CC[C@@H](CCCCCCCC(O)CC3=CC(C)OC3=O)O2)CCC1O (stereo partly specified) | > 12.5 µM | 9.13 µM and > 10.5 µM | 16.5 µM | > 25 µM | > 18.1 µM | > 25 µM | > 25 µM | > 25 µM | > 18.4 µM | > 25 µM | > 25 µM | 1.71 | 1.81 | 10.3 µM | 6.55 µM | 2.48 µM | 2.51 µM | 4.47 µM | 
O=C(N/N=C1/C(=O)c2c3ccccc3cc3cccc1c23)c1ccccc1 | > 100 µM | > 63.2 µM | > 100 µM | > 31.6 µM | > 94 µM | > 100 µM | > 57.4 µM | > 100 µM | > 100 µM | 44.2 µM | > 100 µM |  |  |  |  |  |  |  | 
CC1OC(OC2C(OC(=O)[C@]34CCC(C)(C)C[C@H]3C3=CC[C@@H]5[C@@]6(C)CC[C@H](OC7OC(C(=O)O)C(O)C(OC8OCC(O)C(O)C8O)C7O)C(C)(C)[C@@H]6CC[C@@]5(C)[C@]3(C)CC4)OCC(O)C2O)C(O)C(OC2OCC(O)C(O)C2O)C1OC1OCC(O)C(OC2OCC(O)C(O)C2O)C1O (stereo partly specified) | 26.3 µM and 35.5 µM | 29.6 µM and 35 µM | 8.95 µM and 26.8 µM | 15.8 µM and 23.7 µM | 14.5 µM and 34.2 µM | 32.1 µM and 31.4 µM | 4.79 µM and 8.63 µM | 21.4 µM and 33.6 µM | 20.2 µM and 32.5 µM | 21.6 µM and 37.6 µM | 6.18 µM and 29.5 µM |  |  | 4.39 µM and 11.3 µM | 6.31 µM and 17.3 µM | 7.42 µM and 17.1 µM | 7.06 µM and 16.6 µM | 2.28 µM and 12.6 µM | 2.83 µM and 11.1 µM
CCCCCCCCCCCCCCCCOC[C@@H](COC(c1ccccc1)(c1ccccc1)c1ccccc1)O[P+](=S)OC (stereo partly specified) | 11.3 µM | 22.4 µM | 5.46 µM | 19.2 µM | 33.3 µM | 30.1 µM | 26.1 µM | 41.8 µM | 26.5 µM | 22.9 µM | 36 µM |  |  |  |  |  |  |  | 
CCOC(=O)C(Cc1cccn1C(=O)OC(C)(C)C)[N+](=O)[O-] (stereo unspecified) | 32.1 µM | 37.9 µM | 45 µM | 55.5 µM | 53.9 µM | 35.4 µM | 40.6 µM | 79.6 µM | 59.3 µM | 89 µM | 48.1 µM |  |  |  |  |  |  |  | 
CC(C)=CCC/C(C)=C/CC/C(C)=C/CC/C(=C/CC/C(C)=C\CC/C(C)=C/CC/C(C)=C/CC/C(C)=C/Cc1cc(O)ccc1O)CO | > 23.4 µM | 15.9 µM | > 37.6 µM | 4.16 µM | 11.5 µM | > 30.7 µM | 18.2 µM | > 100 µM | 11.8 µM | 19.7 µM | 9.5 µM |  |  |  |  |  |  |  | 
COc1ccc(OC)c(NS(=O)(=O)c2ccc3nc(C)n(NS(=O)(=O)c4cc(OC)ccc4OC)c(=O)c3c2)c1 | > 100 µM | > 100 µM | > 100 µM | > 100 µM | > 100 µM | > 100 µM | > 100 µM | > 100 µM | > 100 µM | > 100 µM | > 100 µM |  |  |  |  |  |  |  | 
Nc1nn2c(nc(N)c3c(N)[nH]nc32)c1N=Nc1ccc(Br)cc1 | 22.6 µM | > 100 µM | > 100 µM | > 75.8 µM | 36.5 µM | > 100 µM | > 100 µM | > 100 µM | > 100 µM | > 92.6 µM | 77.9 µM |  |  |  |  |  |  |  | 
Clc1ccc(C2Nc3ccccc3C3=NCCN32)cc1 (stereo unspecified) | 36.2 µM | 34.4 µM | 59.2 µM | 40.2 µM | 41.3 µM | > 100 µM | 63.7 µM | 46.2 µM | 36 µM | > 100 µM | 57.1 µM |  |  |  |  |  |  |  | 
CCCCON1C[C@H](OC(C)=O)C(OC(C)=O)[C@H](OC(C)=O)C1 (stereo partly specified) | > 100 µM | > 100 µM | > 100 µM | > 100 µM | > 100 µM | > 100 µM | > 100 µM | > 100 µM | > 100 µM | > 100 µM | > 100 µM |  |  |  |  |  |  |  | 
O=[N+]([O-])c1ccc(C=NCC2CCCN3CCCCC23)cc1 (stereo unspecified) | 30.4 µM | > 100 µM | > 100 µM | > 100 µM | > 100 µM | > 100 µM | > 100 µM | > 100 µM | > 100 µM | > 100 µM | > 100 µM |  |  |  |  |  |  |  | 
